Active and inactive are the calls of the source. No cut-off for these calls is given here.
Legend:
[1] = system: SARS-CoV-2; test: Antiviral activity against SARS-CoV-2 Gamma (P.1) variant infected in human A549 cells harbouring ACE2 pretreated with compound for 1 hr followed by viral infection for 1 hrs and measured after 48 hrs by RT-qPCR analysis; type: functional, organism-based; settings: Severe acute respiratory syndrome coronavirus 2, time 50.0 hrs
[2] = system: SARS-CoV-2; test: Antiviral activity against SARS-CoV-2 Delta (B.1.617.2) variant infected in human A549 cells harbouring ACE2 pretreated with compound for 1 hr followed by viral infection for 1 hrs and measured after 48 hrs by RT-qPCR analysis; type: functional, organism-based; settings: Severe acute respiratory syndrome coronavirus 2, time 50.0 hrs

Cc1ccc(NC2CNC2)cc1C(=O)N[C@H](C)c1cccc(-c2ccc(CNC3CCCC3)s2)c1
Activity [1]: Active
Activity [2]: Active

— ChEMBL document CHEMBL5576130, “Non-Covalent Inhibitors of SARS-CoV-2 Papain-Like Protease (PLpro): In Vitro and In Vivo Antiviral Activity” (J Med Chem, 2024)
